Assay results as given in PMC6522964 (Journal of Enzyme Inhibition and Medicinal Chemistry, 2019).
Read-outs that look alike come from different tables or passages of the source.

Experiments:
tyrosinase [1] = target: T1, tyrosinase (Agaricus bisporus, UniProt C7FF04); assay type: biochemical, mushroom; settings: increasing CuCl2 0-240 μM; diphenolase activity
T1 construct: purchased Sigma-Aldrich (St. Louis, MO, USA)
Procedure: To investigate whether the binding of copper ions with the inhibitor takes place at the active site of tyrosinase, the assay was carried out according to the method by Ismaya with some modifications.[17] Stock solutions of each KADs (10 mM) were prepared in DMSO. Then, 0.33 mM solutions were prepared in a cuvette containing phosphate buffer (10 mM, pH 7.4), and treated with different concentrations of CuCl2 (0, 60, 120, 180 or 240 µM). After 10 min of incubation period at room temperature, absorbance was scanned from 240 to 600 nm. Moreover, the relative activity of tyrosinase was determined by adding 0.1 ml various concentrations of CuCl2–KADs complexes from the previous step. The reaction system and the method were the same as the determination of diphenolase activity.

mushroom tyrosinase [2] = target: T2, mushroom tyrosinase (Agaricus bisporus, UniProt C7FF04); assay: Monophenolase activity of mushroom tyrosinase (L-Tyr as substrate); assay type: biochemical; settings: maximum concentration 20 μM
T2 construct: purchased Sigma-Aldrich (St. Louis, MO, USA)
Procedure: (§1) The reaction system (3 ml) contained 1 mM L-Tyr or 0.5 mM L-DOPA and enzyme in 50 mM Na2HPO4–NaH2PO4 buffer (pH 6.8) and different concentrations of KADs. The KADs were dissolved in DMSO and diluted to appropriate concentration, such that the final concentration of DMSO is maintained at 3.3%. […] The enzyme activity was evaluated by increasing the absorbance at 475 nm accompanying the oxidation of the substrates with a molar absorption coefficient of 3700 (M^−1 cm^−1). […] The reaction was carried out at 37 °C. A Thermo […] GO spectrophotometer was used for absorbance and kinetic measure.

mushroom tyrosinase [3] = target: T2, mushroom tyrosinase; assay: Diphenolase activity of mushroom tyrosinase (L-DOPA as substrate), Lineweaver-Burk kinetics; assay type: biochemical; settings: for Inhibition Type / Inhibition Mechanism: diphenolase; for Inhibition Type: Lineweaver-Burk plots; for Inhibition Mechanism: enzyme activity vs enzyme concentration plots; for Inhibition constant KIS: enzyme-substrate complex, plot of vertical intercepts vs inhibitor concentration; for Ki: free enzyme, plot of slopes vs inhibitor concentration, read-out: Inhibition constant KI
Procedure: as §1

tyrosinase [4] = target: T1, tyrosinase; assay: Intrinsic fluorescence quenching of tyrosinase (Stern-Volmer); assay type: binding, mushroom
Procedure: Fluorescence spectra were determined as previously reported by Zhu.[12] Cary Eclipse fluorescence spectrophotometer was used to record the fluorescence intensities at an excitation wavelength of 280 nm, and emission and excitation slit widths were 10 nm and 5 nm, respectively. At wavelengths of 300–450 nm, fluorescence emission spectra were recorded. In this assay, 10 μL of KADs of different concentrations were incorporated with 2 ml tyrosinase solution (0.2 mg/ml).
The fluorescence quenching data expressed as the fluorescence intensity against KADs concentration. Fluorescence quenching was calculated using the Stern–Volmer equation: F0/F = 1 + KSV[Q] Where F0 is the fluorescence intensities of tyrosinase, F is the fluorescence intensities after addition of the quencher, [Q] is the concentration of the quencher and KSV is the Stern–Volmer quenching constant. For the calculation of biomolecular quenching constants, the data were plotted as F0/F against [Q], with the biomolecular quenching constants calculated by linear regression.
There are two known fluorescence quenching mechanisms: static quenching is caused by complex formation while dynamic quenching is caused by collisional processes.[13] For the static quenching, the KSV value must be larger than 100 M^−1 and the apparent binding constant (KA) and the binding sites (n) were estimated by plots of log[(F0−F)/F] versus log[Q] using the following equation:[14] log ((F0 − F)/F) = logKA + nlog [Q]

[5] = DPPH free-radical scavenging assay
Procedure: (§2) The antioxidant capacities of compounds usually analysed through DPPH and ABTS^+ free-radical scavenging assays. The DPPH free-radical scavenging was conducted according to the procedure described by Chen.[18] Stock solution (0.2 mM DPPH) was prepared in 95% methyl alcohol and diluted to with OD value of 1.1 ± 0.05 at 517 nm for analysis. Briefly, 0.1 ml of compounds dissolved in DMSO at different concentrations (50, 200, 400 and 800 μg/ml) were added to DPPH with a methyl alcohol solution (0.2 mM, 2.9 ml). The mixture was shaken gently and absorbance was read at 517 nm every 5 min, a total of 30 min. The ABTS^+ free-radical scavenging activity assay was performed as described by Ai[9] with slight modification. 7 mM ABTS^+ and 2.45 mM K2S2O8 were dissolved in 10 mM sodium phosphate buffer and then placed at dark room for 16 h to obtain ABTS^+ stock solution. […] After 6 min of incubation period at room temperature, absorbance was read at 714 nm. The scavenging capacity of the antioxidant for the free-radical was calculated according to the following equation: Radical scavenging effect (%) = (1 − A1/A0) × 100% where A0 is the absorbance of blank control and A1 is the absorbance in the presence of sample. Data are represented from three independent experiments, and the mean values were calculated. […]

[6] = ABTS+ free-radical scavenging assay
Procedure: as §2

mushroom tyrosinase [7] = target: T2, mushroom tyrosinase; settings: L-Tyr substrate, read-out: IC50 Monophenolase; cited from earlier work
mushroom tyrosinase [8] = target: T2, mushroom tyrosinase; settings: L-DOPA substrate, read-out: IC50 Diphenolase; cited from earlier work
B16F10 cell = settings: cited from earlier work

T2 sequence (C7FF04 1-392): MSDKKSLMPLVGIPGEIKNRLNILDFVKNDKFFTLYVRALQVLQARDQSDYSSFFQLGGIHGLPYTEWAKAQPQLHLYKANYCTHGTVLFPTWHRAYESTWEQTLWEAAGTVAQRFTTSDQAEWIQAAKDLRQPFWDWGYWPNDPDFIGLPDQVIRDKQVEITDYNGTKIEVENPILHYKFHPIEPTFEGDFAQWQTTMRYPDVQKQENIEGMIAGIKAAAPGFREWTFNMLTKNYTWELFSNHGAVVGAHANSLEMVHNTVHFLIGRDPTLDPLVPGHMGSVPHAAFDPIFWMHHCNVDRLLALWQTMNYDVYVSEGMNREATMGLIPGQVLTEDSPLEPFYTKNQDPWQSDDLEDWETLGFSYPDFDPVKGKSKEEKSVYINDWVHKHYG
T1 sequence (C7FF04 1-392): as above

SMILES	Change of relative tyrosinase activity after treatment with Cu2+ (tyrosinase [1])	Lag time of monophenolase activity (mushroom tyrosinase [2]) [min]	Steady-state activity of monophenolase decreased to (mushroom tyrosinase [2]; remaining activity) [%]	Inhibition Type (mushroom tyrosinase [3])	Inhibition Mechanism (mushroom tyrosinase [3])	Inhibition constant KIS (mushroom tyrosinase [3]) [µM]	Ki (mushroom tyrosinase [3]) [µM]	KA (apparent binding constant) (tyrosinase [4]; λex 280 nm) [M⁻¹]	KSV (Stern-Volmer quenching constant) (tyrosinase [4]; λex 280 nm) [M⁻¹]	Type of quenching (tyrosinase [4]; λex 280 nm)	n (binding sites) (tyrosinase [4]; λex 280 nm)	IC50 of DPPH [5] [µg/mL]	IC50 of ABTS+ [6] [µg/mL]	IC50 (mushroom tyrosinase [7]) [µM]	IC50 (mushroom tyrosinase [8]) [µM]	Inhibition of melanogenesis (B16F10 cell)	Kd (tyrosinase [4]) [µM]
N[C@@H](Cc1ccc(O)c(O)c1)C(=O)O [DOPA, 3,4-dihydroxyphenylalanine, reference compound]	almost no changes	–	–	–	–	–	–	–	–	–	–	–	–	–	–	–	–
COc1ccccc1C=CC=NNc1nnc(SCc2cc(=O)c(O)co2)n1N [KAD2]	2 times	6.7	48.29	Mixed	Reversible	9.18	6.3	141000	57000	Static	1.0394	227.80	126.63	20.5	7.5 ± 0.13	effectively inhibit melanogenesis	–
Nn1c(N/N=C/C=C/c2ccccc2)nnc1SCc1cc(=O)c(O)co1 [KAD1]	1.5 times	–	–	Mixed	Reversible	45.50	4.95	–	58400	Static	0.9394	–	–	21.6	8.33 ± 0.22	–	34.8
